# System: NFkB
# Experiment: NFkB mRNA expression in OECM1 cells
# Assay type: cell-based, human
# Experimental: NF-kB, MMP-2, ADAM-17, and IL6 are implicated in the degradation of the expression of genes involved in the cell basement membrane and extracellular matrix of oral squamous cell carcinoma. Accordingly, the expression of NFkB, MMP2, ADAM17, and IL6 in OECM1 cells following exposure to 0.1 μg/ml PGDHC and 1 μg/ml PGDHC was determined.
# Sphingosine-1-phosphate (S1P) sphingolipid plays an essential role in the survival, migration, and degradation of the basement membrane and extracellular matrix of oral squamous cell carcinoma (Yura et al., Cancers (Basel). 2020 August; 12(8): 2062). To determine whether PGDHC can inhibit such properties, the combined effects of PGDHC and S1P on OECM1 gene expression was tested in vitro.
substance,measurement,setting,value
phosphoglycerol dihydroceramide [PGDHC],expression of NFkB mRNA in OECM1 cells,1 μg/ml,significantly inhibited
same,expression of NFkB mRNA in OECM1 cells exposed to S1P,in combination with S1P,significantly inhibited
